Experimental data taken from article PMC6433232, “Targeting mitochondria in cancer therapy could provide a basis for the selective anti-cancer activity” (PLoS ONE, 2019).
Like-named read-outs stand apart in the source and are kept apart here.

Assays:
[1] = test system: pancreatic cancer MIA PaCa-2 cells; experiment: cells; conditions: for EC50: Homo sapiens, MIA PaCa-2, read-out: EC50, μM MIA PaCa-2; for improvement in anti-cancer activity: versus compound 4
Procedure: (§1) Fig 1 A, Structure of NSC130362. B, Dose response curve of NSC130362 in MIA PaCa-2 cells. Cells were pre-incubated with NSC130362 for 2 h followed by addition of ATO (5 μM) and incubation for an additional 24 h. At the end of the treatment, the ratio of dead cells was determined by a CellTiterGlo reagent.

[2] = test system: human primary hepatocytes; experiment: cells; conditions: Hepatocyte, read-out: EC50, μM Hepatocytes
Excerpt: (§2) We selected hepatocytes as normal cells because hepatocytes are mediate toxicity to multiple drugs and are used as a standard to assess toxicity of drugs in vitro [28]. […] For comparison with the standard of care, doxorubicin was also included in this analysis.

[3] = test system: human primary hepatocytes; conditions: for EC50: read-out: EC50, μM Hepatocytes ATO, in the presence of ATO (5 μM), SD does not exceed 10%; for times more toxic toward hepatocytes than compound 2: versus compound 2
Excerpt: as §2

[4] = in vitro; conditions: human
Procedure: as §1

## CCCNC1=C(Cl)C(=O)c2ccccc2C1=O [compound 4]
[1]
  EC50: 90 µM
[1]; versus compound 3
  reduction of anti-cancer activity: more than 3 fold
[2]
  EC50: 90 µM

## COCCCNC1=C(Cl)C(=O)c2ccccc2C1=O [compound 22]
[1]
  EC50: 39 µM
[1]; versus compound 21
  decrease in anti-cancer activity: 4 fold
[3]; versus compound 4
  increase in toxicity to hepatocytes: approximately 3 fold
[2]
  EC50: 90 µM

## CCCCCCCCNC1=C(Cl)C(=O)c2ccccc2C1=O [compound 9]
[1]
  EC50: > 90 µM
[2]
  EC50: > 90 µM

## CC1=CC(=O)c2ccccc2C1=O [compound 61, 3-methyl-1,4-NQ, reference compound]
[4]
  selectivity ratio: 10.4
[1]
  EC50: 7.8 µM
[1]; versus 1,4-NQ (compound 56)
  improved anti-cancer activity: 1.5 fold
[3]
  times less toxic to hepatocytes: approximately 5 times
  EC50: 15.6 µM
[2]
  EC50: 11.8 µM

## CC(C)NC1=C(Cl)C(=O)c2ccccc2C1=O [compound 10]
[1]
  EC50: 69 µM
[2]
  EC50: > 90 µM

## O=C1C=CC(=O)c2ccccc21 [compound 56, 1,4-NQ, reference compound]
[1]
  EC50: 9.2 µM
[2]
  EC50: 1.8 µM

## O=C1C(Cl)=C(Nc2ccc(O)cc2)C(=O)c2ccccc21 [compound 45]
[1]
  EC50: 2.5 µM
[2]
  EC50: 2.6 µM

## CC1CCCC(C)N1C1=C(Cl)C(=O)c2ccccc2C1=O (stereo not shown) [compound 47]
[1]
  EC50: 7 µM
[2]
  EC50: 9 µM

## [N-]=[N+]=NC1=C(Cl)C(=O)c2ccccc2C1=O [compound 46]
[1]
  EC50: 5.2 µM
[2]
  EC50: 2.9 µM

## O=C1C(Cl)=C(NCCCN(CCO)CCO)C(=O)c2ccccc21 [compound 28]
[1]
  EC50: 9.2 µM
  improvement in anti-cancer activity: 4.6 fold
[3]; versus compound 4
  increase in toxicity to hepatocytes: 3.0 fold
[2]
  EC50: 48.5 µM

## O=C1C=C(N2CCCCC2)C(=O)c2ccccc21 [compound 58]
[1]
  EC50: 52 µM
[2]
  EC50: 90 µM

## CN(C)C1=C(Cl)C(=O)c2ccccc2C1=O [compound 14, 2-chloro-3-(dimethylamino)-1,4-NQ]
[1]
  EC50: 7.2 µM
[3]
  times more toxic toward hepatocytes than compound 2: approximately 2 times
[2]
  EC50: 10 µM

## O=C1C(Cl)=C(Nc2ccccn2)C(=O)c2ccccc21 [compound 37]
[1]
  EC50: 5.2 µM
[2]
  EC50: 6 µM

## CNC1=C(Cl)C(=O)c2ccccc2C1=O [compound 2]
[1]
  EC50: 38.6 µM
[2]
  EC50: 41.1 µM

## O=C(CCl)NC1=C(Cl)C(=O)c2ccccc2C1=O [compound 33]
[1]
  EC50: 7.9 µM
[1]; versus compound 29
  decrease in anti-cancer activity: 2 fold
[2]
  EC50: 25.4 µM

## O=C1C(Cl)=C(Nc2ccc(Cl)cc2)C(=O)c2ccccc21 [compound 43]
[1]
  EC50: > 90 µM
[2]
  EC50: > 90 µM

## CCC(C)NC1=C(Cl)C(=O)c2ccccc2C1=O (stereo not shown) [compound 11]
[1]
  EC50: > 90 µM
[2]
  EC50: > 90 µM

## CCCNC1=CC(=O)c2ccccc2C1=O [compound 50]
[1]
  EC50: > 90 µM
[2]
  EC50: > 90 µM

## O=C1C(Cl)=C(N2CC2)C(=O)c2ccccc21 [compound 15, 2-chloro-3-(aziridin-1-yl)-1,4-NQ]
[1]
  EC50: 2.3 µM
[3]
  times more toxic toward hepatocytes than compound 2: ~6.5 times
[2]
  EC50: 2.6 µM

## CN(C)CCCNC1=C(Cl)C(=O)c2ccccc2C1=O [compound 27]
[1]
  EC50: 0.9 µM
  improvement in anti-cancer activity: 10.8 fold
[3]; versus compound 4
  increase in toxicity to hepatocytes: 9.2 fold
[2]
  EC50: 24.1 µM

## CCC(=O)NC1=C(Cl)C(=O)c2ccccc2C1=O [compound 30]
[1]
  EC50: 5.7 µM
[2]
  EC50: 3.6 µM

## COc1cccc2c1C(=O)c1c(O)c3c(c(O)c1C2=O)C[C@@](O)(C(=O)CO)C[C@@H]3O[C@H]1C[C@H](N)[C@H](O)[C@H](C)O1 [Doxorubicin, reference compound]
[4]
  selectivity ratio: 3.5
[1]
  EC50: 0.7 µM
[1]; human
  selective cytotoxicity index, times less: approximately 25 times
[2]
  EC50: 10 µM

## O=C1C(Cl)=C(NC(CO)(CO)CO)C(=O)c2ccccc21 [compound 20]
[1]
  EC50: > 90 µM
[1]; versus compound 13
  loss in anti-cancer activity: approximately 50 fold
[3]; versus compound 13
  loss in toxicity to hepatocytes: approximately 2 fold
[2]
  EC50: 47.8 µM

## O=C1C(Cl)=C(Nc2ccc(F)cc2)C(=O)c2ccccc21 [compound 42]
[1]
  EC50: 3.2 µM
[2]
  EC50: 10 µM

## CCNC1=CC(=O)c2ccccc2C1=O [compound 49]
[1]
  EC50: > 90 µM
[2]
  EC50: > 90 µM

## O=C1C(Cl)=C(NNC(=O)C(F)(F)F)C(=O)c2ccccc21 [compound 35]
[1]
  EC50: 8 µM
[2]
  EC50: 11.5 µM

## CCCCCNC1=C(Cl)C(=O)c2ccccc2C1=O [compound 6]
[1]
  EC50: > 90 µM
[2]
  EC50: > 90 µM

## CCCCNC1=CC(=O)c2ccccc2C1=O [compound 51]
[1]
  EC50: > 90 µM
[2]
  EC50: > 90 µM

## O=C1C(Cl)=C(Nc2cccc(Cl)c2)C(=O)c2ccccc21 [compound 44]
[1]
  EC50: 7 µM
[2]
  EC50: 5.3 µM

## CC(C)CNC1=CC(=O)c2ccccc2C1=O [compound 52]
[1]
  EC50: > 90 µM
[2]
  EC50: > 90 µM

## CC(O)CNC1=C(Cl)C(=O)c2ccccc2C1=O (stereo not shown) [compound 19]
[1]
  EC50: 24.9 µM
[3]; versus compound 17
  increase in toxicity to hepatocytes: approximately 3 fold

## NC1=C(Br)C(=O)c2ncccc2C1=O [compound 65]
[1]
  EC50: 1.8 µM
[3]
  EC50: 4.1 µM
[2]
  EC50: 8.6 µM

## CC(C)OCCCNC1=C(Cl)C(=O)c2ccccc2C1=O [compound 25]
[1]
  EC50: 82.1 µM
[2]
  EC50: 60.8 µM

## O=C(O)CNC1=C(Cl)C(=O)c2ccccc2C1=O [compound 34]
[1]
  EC50: 18.1 µM
[2]
  EC50: 11.8 µM

## O=C1C=C(NCCNCCO)C(=O)c2ccccc21 [compound 57]
[1]
  EC50: > 90 µM
[2]
  EC50: 83.2 µM

## NC1=CC(=O)c2ccccc2C1=O [compound 48, 3-amino-1,4-NQ]
[1]
  EC50: 24.4 µM
[3]; versus compound 1
  increase in toxicity to hepatocytes: approximately 3 fold
[2]
  EC50: 28.1 µM

## CCN(CC)C1=CC(=O)c2ccccc2C1=O [compound 59]
[1]
  EC50: 90 µM
[2]
  EC50: 90 µM

## O=C1C(Cl)=C(NCCCO)C(=O)c2ccccc21 [compound 18]
[1]
  EC50: 27.5 µM
[3]; versus compound 17
  increase in toxicity to hepatocytes: approximately 3 fold
[2]
  EC50: 75.3 µM

## CC(C)CNC1=C(Cl)C(=O)c2ccccc2C1=O [compound 12]
[1]
  EC50: > 90 µM
[2]
  EC50: > 90 µM

## CCCCNC1=C(Cl)C(=O)c2ccccc2C1=O [compound 5]
[1]
  EC50: > 90 µM
[2]
  EC50: > 90 µM

## CCCCCCNC1=C(Cl)C(=O)c2ccccc2C1=O [compound 7]
[1]
  EC50: 26.1 µM
[2]
  EC50: > 90 µM
